Publication PMC4793209 (2016)
One block for each compound: values may come before it.

Assays:
Test in all cases: in-line probing
[1] = tested on: 108 yjdF RNA (WT, B. subtilis) (RNA, riboswitch) GGUAUAUGGUAAAGAAUGAAAAAACACGAUUCGGUUGGUAGUCCGGAUGCAUGAUUGAGAAUGUCAGUAACCUUCCCCUCCUCGGGAUGUCCAUCAUUCUUUAAUAUCU; settings: 100 mM KCl, 20 mM MgCl2, 50 mM Tris-HCl pH 8.3, 25 °C
[2] = tested on: 107 yjdF RNA (B. endophyticus) (RNA, riboswitch) GGUAUAUGAAAUGAAAAAACACAAUUCGGUUGGUAGUCCGGAUGCAUCAUAAUAAAUGAAUGUCAGUAGCCUUCCCCUCCUCGGGAUGUCCAUCAUUUCAUAGUAUUUU; settings: 100 mM KCl, 20 mM MgCl2; 50 mM Tris-HCl pH 8.3, 25 °C
[3] = tested on: 108 yjdF M3 (RNA, riboswitch) GGUAUAUGGUAAAGAAUGAAAAAACACGAUUCGGUUGGUCGUCCGGAUGCAUGAUUGAGAAUGUCAGUAACCUUCCCCUCCUCGGGAUGUCCAUCAUUCUUUAAUAUCU; settings: 100 mM KCl, 20 mM MgCl2; 50 mM Tris-HCl pH 8.3, 25 °C
[4] = tested on: 108 yjdF M1 (RNA, riboswitch) GGUAUAUGGUAAACUAUGAAAAAACACGAUUCGGUUGGUAGUCCGGAUGCAUGAUUGAGAAUGUCAGUAACCUUCCCCUCCUCGGGAUGUCCAUCAUUCUUUAAUAUCU; settings: 100 mM KCl, 20 mM MgCl2; 50 mM Tris-HCl pH 8.3, 25 °C; affinity reduced against WT
[5] = tested on: 108 yjdF M2 (RNA, riboswitch) GGUAUAUGGUAAACUAUGAAAAAACACGAUUCGGUUGGUAGUCCGGAUGCAUGAUUGAGAAUGUCAGUAACCUUCCCCUCCUCGGGAUGUCCAUCAUAGUUUAAUAUCU; settings: 100 mM KCl, 20 mM MgCl2; 50 mM Tris-HCl pH 8.3, 25 °C; near WT affinity
[6] = 36-48 h, RNA <5 nM, apparent, 10 µM or poorer
[7] = apparent, unit in unseen head of Table S1

Structure (SMILES): COc1ccc2c(c[n+](C)c3c4cc5c(cc4ccc23)OCO5)c1OC
KD ([1]; 36-48 h, RNA <5 nM, apparent): 2.5 nM
binding [2]: yes

Structure (SMILES): C[n+]1cc2c3c(ccc2c2ccc4cc5c(cc4c21)OCO5)OCO3
KD ([1]; 36-48 h, RNA <5 nM, apparent): 4.2 nM

Structure (SMILES): Cc1cc(N)c2ccccc2[n+]1CCCCCCCCCC[n+]1c(C)cc(N)c2ccccc21
binding ([1]; apparent): yes

Structure (SMILES): Cc1cc2nc3c(=O)[nH]c(=O)nc-3n(C)c2cc1C
KD ([1]; 36-48 h, RNA <5 nM, apparent): 800 nM

Structure (SMILES): Cc1nccc2c1[nH]c1ccccc12
binding ([1]; apparent): yes

Structure (SMILES): Nc1ccc2cc3ccc(N)cc3nc2c1
binding [4]: weak
KD ([1]; 36-48 h, RNA <5 nM, apparent): 6.1 nM
binding [5]: yes
binding [3]: no

Structure (SMILES): O=C(O)/C=C/c1ccccc1
KD [1, 6]: > 10000 nM

Continued, values first:

KD [1, 6]: > 10000 nM
Structure (SMILES): CC(=O)Oc1ccccc1C(=O)O

KD ([1]; 36-48 h, RNA <5 nM, apparent): ~ 1 µM
Structure (SMILES): CCn1cc(C(=O)O)c(=O)c2ccc(C)nc21

KD [1, 7]: > 100
Structure (SMILES): C[C@H](CCC(=O)NCCS(=O)(=O)O)[C@H]1CC[C@H]2[C@@H]3CC[C@@H]4C[C@H](O)CC[C@]4(C)[C@H]3C[C@H](O)[C@]12C

KD [1, 7]: > 100
Structure (SMILES): C[C@H](CCC(=O)O)[C@H]1CC[C@H]2[C@@H]3CC[C@@H]4C[C@H](O)CC[C@]4(C)[C@H]3C[C@H](O)[C@]12C

KD [1, 7]: > 100
Structure (SMILES): C[C@H](CCC(=O)O)[C@H]1CC[C@H]2[C@@H]3[C@H](O)C[C@@H]4C[C@H](O)CC[C@]4(C)[C@H]3CC[C@]12C

binding ([1]; riboflavin 0-10 µM, weaker than proflavine): yes
binding [3]: no
Structure (SMILES): Cc1cc2nc3c(=O)[nH]c(=O)nc-3n(C[C@H](O)[C@H](O)[C@H](O)CO)c2cc1C

KD [1, 6]: > 10000 nM
Structure (SMILES): O=C(O)/C=C/c1ccc(O)c(O)c1
